Assay results reported in article PMC11630551, “In silico screening of protein-binding peptides with an application to developing peptide inhibitors against antibiotic resistance” (PNAS Nexus, 2024).
Entries after “also recorded” stand apart in the source; their conditions may differ.

Tests used:
TEM-1 β-lactamase = molecular target: T1, TEM-1 β-lactamase (Escherichia coli, UniProt P62593); type: biochemical
T1 construct: host or cells: E. coli BL21 (DE3)
Description: Because these peptides were designed to bind to the substrate-binding pocket of TEM-1, the interactions of TEM-1:peptide were evaluated using β-lactamase activity assay. The peptides were preincubated with purified recombinant TEM-1 at room temperature to allow binding before mixing with substrate, nitrocefin. The enzymatic activity was measured by monitoring the colorimetric change of nitrocefin with TEM-1 in the absence and presence of the peptide candidates.
Peptide screening was performed with 5 nM TEM-1 mixed with 100 μM of each peptide. The peptide was preincubated with TEM-1 at 37 °C for 30 min prior to mixing with nitrocefin. […] Nitrocefin was then rapidly mixed with the TEM-1: peptide solution to measure the absorbance change at 520 nm. The final concentrations of TEM-1 and nitrocefin in the mixture were 5 nM and 10 μM, respectively.

[1] = Solubility of synthesized peptides; conditions: excluded from assay experiments

T1 sequence (P62593 24-286 limits assumed): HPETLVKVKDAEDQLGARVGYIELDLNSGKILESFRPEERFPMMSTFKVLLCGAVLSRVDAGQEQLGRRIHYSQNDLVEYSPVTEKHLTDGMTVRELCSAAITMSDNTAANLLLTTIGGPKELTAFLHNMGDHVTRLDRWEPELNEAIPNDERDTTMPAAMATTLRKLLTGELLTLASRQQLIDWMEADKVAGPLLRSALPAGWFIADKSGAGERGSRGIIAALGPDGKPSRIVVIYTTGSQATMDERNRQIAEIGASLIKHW

Row | Sequence | change of β-lactamase activity of TEM-1 at peptide screening concentration (TEM-1 β-lactamase) | solubility [1]
1 | AKYFEQASYG [TF6] | increased the β-lactamase activity; also recorded: did not exhibit significant inhibition | –
2 | ARDATCRRWG [TF3] | increased the β-lactamase activity; also recorded: did not exhibit significant inhibition | –
3 | ASRAEVDAAAKGAA [TF8] | did not exhibit significant inhibition | –
4 | ESYHGMLACVIAG [TF10] | – | poor solubility
5 | EYGDAWHDAG [TF4] | did not exhibit significant inhibition | –
6 | RDSVGAASVN [TF9] | did not exhibit significant inhibition | –
